Test results reported in patent EP3046573B1, “AMYLIN ANALOGUES” (Zealand Pharma A/S, priority 2013, dated 2015).
Numbered stars: 1 amine (or outer) side, 2 acyl side, 3 side chain; on linkers, the order of the positions; unused ones are H or OH. Bridge positions count the residues as written; N and C are the ends. Square brackets hold non-standard residues; d marks the D form. Peptide text beside a SMILES is read from it. * marks the point of attachment. C20 diacid = O=C(O)CCCCCCCCCCCCCCCCCCC(=O)*; γGlu = O=C(O)[C@H](CCC(=O)[*:2])N[*:1]; Hyp = O=C(O)[C@@H]1C[C@@H](O)CN1; NMeI = CC[C@H](C)[C@H](NC)C(=O)O; Sar = CNCC(=O)O

How the values were obtained:
[1] = Solubility assessment (turbidity absorbance at 325 nm); type: physicochemical; settings: stock 2 mg/ml diluted 1:1, ambient temperature (typically 25°C), n=1
How it was run: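 Stock 2 mg/ml peptide, H2O/HCl pH 2.5; 1:1 into 100 mM buffers: acetate pH 4.0/5.0, His pH 6.0/7.0, phosphate pH 6.0/7.0/7.5. A280 + A325, ~25°C, n=1. Soluble ≥ 1 mg/ml if A325 ≤ 0.02.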

[2] = target: T1, human calcitonin receptor (hCTR2) (Homo sapiens, UniProt P30988); experiment: hCTR2 assay: induction of cAMP (AlphaScreen cAMP Assay kit) in COS7 cells expressing hCTR2; type: cell-based; settings: cAMP induction in COS7 cells expressing hCTR2; average of a minimum of 3 determinations; read-out: hCTR2 EC50
T1 construct: expressed in transfected cells
T1 sequence (P30988 25-474): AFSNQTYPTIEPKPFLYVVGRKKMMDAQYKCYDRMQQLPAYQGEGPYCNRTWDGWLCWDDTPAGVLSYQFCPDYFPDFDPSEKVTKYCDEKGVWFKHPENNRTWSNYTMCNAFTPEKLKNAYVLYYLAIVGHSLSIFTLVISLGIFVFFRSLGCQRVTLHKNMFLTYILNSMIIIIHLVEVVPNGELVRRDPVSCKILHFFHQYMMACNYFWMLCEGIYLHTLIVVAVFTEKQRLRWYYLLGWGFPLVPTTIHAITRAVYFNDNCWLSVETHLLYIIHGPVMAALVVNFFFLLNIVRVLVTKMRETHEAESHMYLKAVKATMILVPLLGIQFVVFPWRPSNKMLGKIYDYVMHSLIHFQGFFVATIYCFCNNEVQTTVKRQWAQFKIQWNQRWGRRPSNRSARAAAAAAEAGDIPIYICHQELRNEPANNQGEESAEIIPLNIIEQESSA
How it was run: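 COS7 stable hCTR2 clone (RAMP-free); peptide dose-response 15 min 37° C in Tyrode pH 7.4 + 100 µM IBMX + 0.1% casein; lysis 10 min RT; AlphaScreen cAMP; 4PL fit.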

[3] = target: T2, human amylin receptor 3 (hAMYR3) consisting of hCTR2 co-expressed with human Receptor Activity Modifying Protein 3 (hRAMP3) (Homo sapiens, UniProt O60896+P30988); experiment: hAMYR3 assay: induction of cAMP (AlphaScreen cAMP Assay kit) in COS7 cells expressing hAMYR3; type: cell-based; settings: cAMP induction in COS7 cells expressing hAMYR3; average of a minimum of 3 determinations; read-out: hAMY R3 EC50
T2 construct: expressed in transfected cells
T2 sequence (P30988 25-474): T1 sequence (P30988 25-474)
T2 sequence (O60896 24-148 partner): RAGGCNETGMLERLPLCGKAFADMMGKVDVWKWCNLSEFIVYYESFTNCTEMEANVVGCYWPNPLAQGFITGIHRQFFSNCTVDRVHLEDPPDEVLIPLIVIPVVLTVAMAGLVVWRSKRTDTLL
How it was run: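 Stable COS7 clone co-expressing hCTR2 and hRAMP3, stimulated 15 min at 37° C with increasing peptide in Tyrode buffer pH 7.4 with 100 µM IBMX and 0.1% casein. cAMP measured by AlphaScreen after lysis; EC50 and % efficacy versus pramlintide from 4PL fit.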

Solubility, Acetate buffer pH 4 ([1]; 100 mM acetate buffer pH 4.0) | Solubility, Acetate buffer pH 5 ([1]; 100 mM acetate buffer pH 5.0) | Solubility, Histidine buffer pH 6 ([1]; 100 mM histidine buffer pH 6.0) | Solubility, Histidine buffer pH 7 ([1]; 100 mM histidine buffer pH 7.0) | Solubility, Phosphate buffer pH 6 ([1]; 100 mM phosphate buffer pH 6.0) | Solubility, Phosphate buffer pH 7 ([1]; 100 mM phosphate buffer pH 7.0) | Solubility, Phosphate buffer pH 7.5 ([1]; 100 mM phosphate buffer pH7.5) | EC50 [2] [nM] | EC50 [3] [nM] | SMILES
 |  |  |  |  |  |  | 0.65 | 0.57 | CC[C@H](C)[C@@H](C(=O)N[C@@H](CC(C)C)C(=O)N[C@@H](CO)C(=O)N[C@@H](CO)C(=O)N[C@H](C(=O)N[C@@H](CCC(=O)O)C(=O)N[C@H](C(=O)NCC(=O)N[C@@H](CO)C(=O)N[C@@H](CCC(=O)O)C(=O)N[C@H](C(=O)N1C[C@H](O)C[C@H]1C(N)=O)[C@@H](C)O)C(C)C)[C@@H](C)O)N(C)C(=O)[C@H](C)NC(=O)CN(C)C(=O)[C@H](Cc1ccccc1)NC(=O)[C@H](CO)NC(=O)[C@H](CO)NC(=O)[C@H](CO)NC(=O)[C@H](CO)NC(=O)[C@H](CCCNC(=N)N)NC(=O)[C@H](Cc1c[nH]cn1)NC(=O)[C@H](CC(C)C)NC(=O)[C@H](Cc1ccccc1)NC(=O)[C@H](CCC(=O)O)NC(=O)[C@H](C)NC(=O)[C@H](CC(C)C)NC(=O)[C@H](CCCNC(=N)N)NC(=O)[C@H](CCC(=O)O)NC(=O)[C@@H](NC(=O)[C@H](C)NC(=O)[C@@H]1CSSC[C@H](NC(=O)[C@H](CCCNC(=N)N)NC(=O)CC[C@H](NC(=O)CCCCCCCCCCCCCCCCCCC(=O)O)C(=O)O)C(=O)N[C@@H](CCC(=O)O)C(=O)N[C@@H]([C@@H](C)O)C(=O)N[C@@H](C)C(=O)N[C@@H]([C@@H](C)O)C(=O)N1)[C@@H](C)O [Compound 170, [19CD]-isoGlu-RC()ETATC()ATERLAEFLHRSSSSF-Gly(Me)-A-Ile(Me)-LSSTEVGSET-Hyp-NH2] ({C20 diacid-γGlu}-RCETATCATERLAEFLHRSSSSF[Sar]A[NMeI]LSSTEVGSET[Hyp]-NH2; disulfide 2-7)
 |  |  |  |  |  |  | 0.062 | 0.14 | CC[C@H](C)[C@@H](C(=O)N[C@@H](CC(C)C)C(=O)N[C@@H](CO)C(=O)N[C@@H](CO)C(=O)N[C@H](C(=O)N[C@@H](CC(=O)O)C(=O)N[C@H](C(=O)NCC(=O)N[C@@H](CO)C(=O)N[C@@H](CC(=O)O)C(=O)N[C@H](C(=O)N1CCC[C@H]1C(N)=O)[C@@H](C)O)C(C)C)[C@@H](C)O)N(C)C(=O)[C@H](C)NC(=O)CN(C)C(=O)[C@H](Cc1ccccc1)NC(=O)[C@H](CO)NC(=O)[C@H](CO)NC(=O)[C@H](CO)NC(=O)[C@H](CO)NC(=O)[C@H](CCCNC(=N)N)NC(=O)[C@H](Cc1c[nH]cn1)NC(=O)[C@H](CC(C)C)NC(=O)[C@H](Cc1ccccc1)NC(=O)[C@H](CCC(=O)O)NC(=O)[C@H](C)NC(=O)[C@H](CC(C)C)NC(=O)[C@H](CCCNC(=N)N)NC(=O)[C@H](CCC(=O)O)NC(=O)[C@@H](NC(=O)[C@H](C)NC(=O)[C@@H]1CSSC[C@H](NC(=O)[C@H](CCCNC(=N)N)NC(=O)CC[C@H](NC(=O)CCCCCCCCCCCCCCCCCCC(=O)O)C(=O)O)C(=O)N2CCC[C@H]2C(=O)N[C@@H]([C@@H](C)O)C(=O)N[C@@H](C)C(=O)N[C@@H]([C@@H](C)O)C(=O)N1)[C@@H](C)O [Compound 173, [19CD]-isoGlu-RC()PTATC()ATERLAEFLHRSSSSF-Gly(Me)-A-Ile(Me)-LSSTDVGSDTP-NH2] ({C20 diacid-γGlu}-RCPTATCATERLAEFLHRSSSSF[Sar]A[NMeI]LSSTDVGSDTP-NH2; disulfide 2-7)

The next lines start with the compound.

SMILES | Solubility, Acetate buffer pH 4 ([1]; 100 mM acetate buffer pH 4.0) | Solubility, Acetate buffer pH 5 ([1]; 100 mM acetate buffer pH 5.0) | Solubility, Histidine buffer pH 6 ([1]; 100 mM histidine buffer pH 6.0) | Solubility, Histidine buffer pH 7 ([1]; 100 mM histidine buffer pH 7.0) | Solubility, Phosphate buffer pH 6 ([1]; 100 mM phosphate buffer pH 6.0) | Solubility, Phosphate buffer pH 7 ([1]; 100 mM phosphate buffer pH 7.0) | Solubility, Phosphate buffer pH 7.5 ([1]; 100 mM phosphate buffer pH7.5) | EC50 [2] [nM] | EC50 [3] [nM]
CC[C@H](C)[C@@H](C(=O)N[C@@H](CC(C)C)C(=O)N[C@@H](CO)C(=O)N[C@@H](CO)C(=O)N[C@H](C(=O)N[C@@H](CCC(=O)O)C(=O)N[C@H](C(=O)NCC(=O)N[C@@H](CO)C(=O)N[C@@H](CCC(=O)O)C(=O)N[C@H](C(=O)N1CCC[C@H]1C(N)=O)[C@@H](C)O)C(C)C)[C@@H](C)O)N(C)C(=O)CN(C)C(=O)[C@H](Cc1ccccc1)NC(=O)[C@H](CO)NC(=O)[C@H](CO)NC(=O)[C@H](CO)NC(=O)[C@H](CO)NC(=O)[C@H](CCCNC(=N)N)NC(=O)[C@H](Cc1c[nH]cn1)NC(=O)[C@H](CC(C)C)NC(=O)[C@H](Cc1ccccc1)NC(=O)[C@H](CCC(=O)O)NC(=O)[C@H](C)NC(=O)[C@H](CC(C)C)NC(=O)[C@H](CCCNC(=N)N)NC(=O)[C@H](CCC(N)=O)NC(=O)[C@@H](NC(=O)[C@H](C)NC(=O)[C@@H]1CSSC[C@H](NC(=O)[C@H](CCCNC(=N)N)NC(=O)CC[C@H](NC(=O)CCCCCCCCCCCCCCCCCCC(=O)O)C(=O)O)C(=O)N[C@@H](CC(N)=O)C(=O)N[C@@H]([C@@H](C)O)C(=O)N[C@@H](C)C(=O)N[C@@H]([C@@H](C)O)C(=O)N1)[C@@H](C)O [Compound 77, [19CD]-isoGlu-RC()NTATC()ATQRLAEFLHRSSSSF-Gly(Me)-Ile(Me)-LSSTEVGSETP-NH2] ({C20 diacid-γGlu}-RCNTATCATQRLAEFLHRSSSSF[Sar][NMeI]LSSTEVGSETP-NH2; disulfide 2-7) | SS (SS indicates solubility ≥ 1mg/ml) | II (II indicates solubility ≤ 1 mg/ml) | II (II indicates solubility ≤ 1 mg/ml) | SS (SS indicates solubility ≥ 1mg/ml) | II (II indicates solubility ≤ 1 mg/ml) | SS (SS indicates solubility ≥ 1mg/ml) | SS (SS indicates solubility ≥ 1mg/ml) | 0.17 | 0.24
CC[C@H](C)[C@@H](C(=O)N[C@@H](CC(C)C)C(=O)N[C@@H](CO)C(=O)N[C@@H](CO)C(=O)N[C@H](C(=O)N[C@@H](CCC(=O)O)C(=O)N[C@H](C(=O)NCC(=O)N[C@@H](CO)C(=O)N[C@@H](CCC(=O)O)C(=O)N[C@H](C(=O)N1C[C@H](O)C[C@H]1C(N)=O)[C@@H](C)O)C(C)C)[C@@H](C)O)N(C)C(=O)CN(C)C(=O)[C@H](Cc1ccccc1)NC(=O)[C@H](CO)NC(=O)[C@H](CO)NC(=O)[C@H](CO)NC(=O)[C@H](CO)NC(=O)[C@H](CCCNC(=N)N)NC(=O)[C@H](Cc1c[nH]cn1)NC(=O)[C@H](CC(C)C)NC(=O)[C@H](Cc1ccccc1)NC(=O)[C@H](CCC(=O)O)NC(=O)[C@H](C)NC(=O)[C@H](CC(C)C)NC(=O)[C@H](CCCNC(=N)N)NC(=O)[C@H](CCC(=O)O)NC(=O)[C@@H](NC(=O)[C@H](C)NC(=O)[C@@H]1CSSC[C@H](NC(=O)[C@H](CCCCN)NC(=O)[C@H](CCCCN)NC(=O)CC[C@H](NC(=O)CCCCCCCCCCCCCCCCCCC(=O)O)C(=O)O)C(=O)N[C@@H](CCC(=O)O)C(=O)N[C@@H]([C@@H](C)O)C(=O)N[C@@H](C)C(=O)N[C@@H]([C@@H](C)O)C(=O)N1)[C@@H](C)O [Compound 169, [19CD]-isoGlu-KKC()ETATC()ATERLAEFLHRSSSSF-Gly(Me)-Ile(Me)-LSSTEVGSET-Hyp-NH2] ({C20 diacid-γGlu}-KKCETATCATERLAEFLHRSSSSF[Sar][NMeI]LSSTEVGSET[Hyp]-NH2; disulfide 3-8) |  |  |  |  |  |  |  | 3.5 | 0.64
CC[C@H](C)[C@@H](C(=O)N[C@@H](CC(C)C)C(=O)N[C@@H](CO)C(=O)N[C@@H](CO)C(=O)N[C@H](C(=O)N[C@@H](CCC(=O)O)C(=O)N[C@H](C(=O)NCC(=O)N[C@@H](CO)C(=O)N[C@@H](CCC(=O)O)C(=O)N[C@H](C(=O)N1C[C@H](O)C[C@H]1C(N)=O)[C@@H](C)O)C(C)C)[C@@H](C)O)N(C)C(=O)CN(C)C(=O)[C@H](Cc1ccccc1)NC(=O)[C@H](CO)NC(=O)[C@H](CO)NC(=O)[C@H](CO)NC(=O)[C@H](CO)NC(=O)[C@H](CCCNC(=N)N)NC(=O)[C@H](Cc1c[nH]cn1)NC(=O)[C@H](CC(C)C)NC(=O)[C@H](Cc1ccccc1)NC(=O)[C@H](CCC(=O)O)NC(=O)[C@H](C)NC(=O)[C@H](CC(C)C)NC(=O)[C@H](CCCNC(=N)N)NC(=O)[C@H](CCC(=O)O)NC(=O)[C@@H](NC(=O)[C@H](C)NC(=O)[C@@H]1CSSC[C@H](NC(=O)[C@H](CCCNC(=N)N)NC(=O)CC[C@H](NC(=O)CCCCCCCCCCCCCCCCCCC(=O)O)C(=O)O)C(=O)N[C@@H](CCC(=O)O)C(=O)N[C@@H]([C@@H](C)O)C(=O)N[C@@H](C)C(=O)N[C@@H]([C@@H](C)O)C(=O)N1)[C@@H](C)O [Compound 171, [19CD]-isoGlu-RC()ETATC()ATERLAEFLHRSSSSF-Gly(Me)-Ile(Me)-LSSTEVGSET-Hyp-NH2] ({C20 diacid-γGlu}-RCETATCATERLAEFLHRSSSSF[Sar][NMeI]LSSTEVGSET[Hyp]-NH2; disulfide 2-7) |  |  |  |  |  |  |  | 0.84 | 0.54
